Reference: patent publication US12528774B2, “Thiosemicarbazone compounds and uses thereof” (The Regents of the University of California, priority 2019, dated 2026)

Legend:
[1] = tested on: electron transport chain complexes of isolated mitochondria; assay: Electron flow assay in isolated mitochondria; assay type: biochemical, mouse; settings: HCT-13 + Cu(II) 20 μM
Description: FIG. 3A: Mito Stress Test of MIAPACA2 PDAC cells treated with HCT13 (25 nM)+Cu(II) (20 μM) for 24h. FIG. 3B: electron flow assay in isolated mitochondria treated with HCT-13 (100 nM)+Cu(II) (20 μM) for 1h. FIG. 3C: viability of 143 BTK parental (wild type, WT) and ρ0 cells after 48h of the indicated HCT13 concentration+Cu(II) (20 μM) treatment, assessed with Trypan Blue Staining. FIG. 3D: 48h cell cycle histogram and plots of S-phase arrest plots in 143 BTK WT and 143 BTK ρ0 cells at 24, 48 and 72h following treatment with indicated concentrations of HCT13+Cu(II)(20 μM). (mean±SD, n=2, one-way ANOVA corrected for multiple comparisons by Bonferroni adjustment, * P<0.05; ** P<0.01; *** P<0.001). […]
Mito Stress Test and Electron Flow Assay: All oxygen consumption rate (OCR) was measured using a XF24 Analyzer (Agilent) and normalized per μg protein. […] OCR was measured before (total respiration) and after the sequential injection of 1 μM oligomycin (complex V inhibitor), 0.75 μM FCCP (uncoupler), and 1 μM of rotenone and myxothiazol (complex I and III inhibitors, respectively), as described previously (1). Mitochondrial respiration was calculated by subtracting the non-mitochondrial respiration left after rotenone and myxothiazol injection. […] OCR was measured before and after the sequential injections described in the previous paragraph. […]

[2] = tested on: p185BCR-ABL Arf−/− pre-B-ALL cells; assay: In vivo efficacy, systemic p185 pre-B ALL model; set-up: species or system mouse; settings: 1 mg/kg q.d. 8 days; fourteen days after treatment initiation
Excerpt: FIG. 9A: dose and schedule for the efficacy study in p185 pre-B-ALL mice. FIGS. 9B-9D: bioluminescence images and quantification of whole body radiance of mice treated with HCT-16 (n=5) or vehicle control (n=10). FIG. 9E: dose and schedule for the efficacy study in MV4-11 AML bearing mice. FIGS. 9F-9H: bioluminescence images and quantification of whole body radiance of mice treated with HCT-16 (n=5) or vehicle control (n=5). (mean±SD, n=2, student's paired t-test, * P<0.05; ** P<0.01; *** P<0.001). q.d.=once/day. For purposes of the disclosure, Cu(HCT-13) is the same as compound HCT-16 (i.e., copper complexed with HCT-13).
The in vivo efficacy and tolerability of HCT-13 was investigated. […] Both p185 and MV4-11 cell lines were engineered to express luciferase to monitor the systemic leukemic burden by bioluminescence imaging (BLI). (Boulos et al, Blood 2011, 117(13):3585-3595; Rahmani et al, Cancer Res. 2018, 78(11):3075-3086). To bypass the need for systemic copper supplementation, a one-to-one complex of copper and HCT-13 (i.e., HCT-16) was prepared for in vivo administration according to reported procedures for similar compounds and characterized by UV-HPLC and HR-MS. […]
In vivo leukemia models and treatment regimens. […] The leukemic burden was monitored using bioluminescence imaging. […]

CN(C)C(=S)N/N=C/c1nccc2cc(F)ccc12 (mixture of isomers) [HCT13, (E)-2-((6-Fluoroisoquinolin-1-yl)methylene)-N,N-dimethylhydrazine-1-carbothioamide and (Z)-2-((6-Fluoroisoquinolin-1-yl)methylene)-N,N-dimethylhydrazine-1-carbothioamide]
mitochondrial ETC complex activity [1]: decreased activity of complexes I and II | mitochondrial ETC complex activity ([1]; listed as HCT-13): ETC Complex 1 was most dramatically affected | systemic disease burden versus control group (bioluminescence) [2]: significantly lower systemic disease burden
